# Data taken from patent US8236339B2, “Therapeutic delivery of carbon monoxide” (priority 2001, dated 2012).
# Like-named read-outs stand apart in the source and are kept apart here.
# Tests used:
# [1] = system: deoxymyoglobin (deoxy-Mb); assay: Myoglobin assay: conversion of deoxy-Mb to MbCO on direct addition of metal carbonyl; type: biochemical, horse; details: direct addition to myoglobin solution (66 μM), no light
# Description: The release of CO from metal carbonyl complexes was assessed spectrophotometrically by measuring the conversion of deoxymyoglobin (deoxy-Mb) to carbonmonoxy myoglobin (MbCO). MbCO has a distinctive absorption spectrum between 500 and 600 nm, and changes at 540 nm were used to quantify the amount of CO liberated. Myoglobin solutions (66 μM final concentration) were prepared freshly by dissolving the protein in 0.04 M phosphate buffer (pH 6.8). Sodium dithionite (0.1%) was added to convert myoglobin to deoxy-Mb prior to each reading. All the spectra were measured using a Helios a spectrophotometer.
# Various metal carbonyl complexes were tested for their ability to elicit MbCO formation when added directly to a deoxy-Mb solution. To different extents, [Ru(CO)3Cl2]2, [Ru(CO)2(DMSO)2Cl2], [Ru(CO)3Cl2(cytosine)] and […] all released CO when added directly to the Mb solution.
# The metal carbonyl complex was solubilized in DMSO (9.7 mM stock solution), aliquots of 2 to 32 μl were added directly to 1 ml of deoxy-Mb solutions (66 μM) and absorption spectrum determined immediately after mixing the samples by inversion.
# [2] = system: deoxymyoglobin (deoxy-Mb); assay: Light-induced CO release diffusing through a membrane into myoglobin solution; type: biochemical, horse; details: for MbCO formation upon illumination: carbonyl solution exposed to cold light, gas diffusing through membrane
# Description: Therefore release of CO was induced by exposing these metal carbonyl complexes to a cold light source and allowing the gas to diffuse through a membrane before reacting with myoglobin as shown in FIG. 1.
# Five hundred microliters of iron pentacarbonyl ([Fe(CO)5], 99.9%) or 1 ml of dimanganese decacarbonyl ([Mn2(CO)10], 13 mM in DMSO) (see also chemical structure) were placed as carbonyl solution 2 in a plastic tube 1. A cell culture insert 3 (Costar) was sealed on top in order to create two separate chambers with a 0.6 cm air space between the solution 2 and an insert membrane 6 (Anapore™ 0.4 μm). 1.5 ml of deoxy-Mb solution (66 μM) was placed in the insert which was covered with Parafilm™ 5. The carbonyl solution was then exposed to cold light from a source 7 to stimulate CO release, allowing the gas to diffuse through the membrane 6 into the myoglobin solution 4. Aliquots of the myoglobin solution 4 were taken at different times and the conversion of deoxy-Mb to MbCO measured spectrophotometrically.
# isolated rat hearts = details: L-NAME 25 μM perfusion
# Description: Langendorff heart preparations were performed using male Lewis rats (300-350 g) as previously described by our group (35). […] (pH 7.4). Coronary perfusion pressure (CPP), a parameter indicative of coronary vessel contractility, was continuously measured by a pressure transducer connected to the aortic cannula and data analyzed with an Acknowledge software (BIOPAC System Inc.).
# Hearts removed either from control rats (vehicle-treated) or from animals that were pre-treated with the heme oxygenase-1 inducer hemin (75 μmol/kg, i.p.) the day before, were initially equilibrated for 20 min on the Langendorff apparatus and then perfused with L-NAME (25 μM final concentration) to elicit vasoconstriction. The extent of CPP increase by L-NAME was also monitored over time in hemin-treated animals that received a heme oxygenase inhibitor (SnPPIX, 40 μmol/kg) 1 h prior to heart excision and in control hearts that were perfused with buffer supplemented with [Mn2(CO)10] (13 μM final concentration). Since [Mn2(CO)10] releases CO only by photodissociation, Krebs buffer containing [Mn2(CO)10] was exposed to a cold light source immediately before entering the aortic cannula.
# [3] = system: Rat vascular smooth muscle cells; assay: Cell viability of vascular smooth muscle cells (colorimetric assay); type: cell-based; details: 0-100 μM, 24 h in complete medium
# Description: Rat vascular smooth muscle cells were obtained from the Coriell Cell Repository (Camden, N.J., USA) and grown in Dulbecco's […] (MEM) supplemented with 20% foetal calf serum, 2×MEM vitamins, 2×MEM non-essential and essential amino acids, penicillin (100 units/ml) and streptomycin (0.1 mg/ml). Confluent cells were treated with different concentrations of metal carbonyl (introduced as DMSO solution—see section B) for various times and cell viability was assessed using a colorimetric assay kit from Promega (Madison, Wis., USA) as previously described (47) after 3 or 24 h incubation, or after 3 h exposure to the agents followed by 21 h incubation in complete media. Results are expressed as the mean±s.e.m. of 6 independent experiments and differences were considered statistically significant at P<0.05 (*).
# HO-1 = assay: Expression of heme oxygenase-1 in rat hearts (immunostaining, Northern blot); type: in vivo; details: 24 h after hemin treatment, i.p.
# Description: For immunohistochemistry analysis, sections of heart muscles (5 μm thickness) were treated with 0.3% H2O2 in methanol to block endogenous peroxidase activity. Immunohistochemical staining was performed using rabbit polyclonal antibody against HO-1 (1:1000 dilution) as previously described (23). The presence of HO-1 was indicated by the development of a brown color. For Northern blot analysis, cardiac tissue was ground in a mortar under liquid nitrogen and suspended in guanidinium thiocyanate lysis buffer, Total RNA was then extracted using a modification of the method described by Chomczynski and Sacchi (49). RNA was run on a 1.3% denaturing agarose gel containing 2.2 M formaldehyde and transferred onto a nylon membrane overnight. The membrane was hybridized using [α-^32P]dCTP-labelled cDNA probes to rat HO-1 and GAPDH genes and bands analyzed using a densitometer as previously described (23, 50).
# Hearts were removed from Lewis rats 24 h after treatment with vehicle (control) or hemin ([…], i.p.) and immunostaining for HO-1 was assessed. For Northern blot analysis, rats were treated with hemin (75 μmol/kg, i.p.) and hearts removed at different time points to assess HO-1 mRNA levels (+ve, positive control).
# [4] = L-NAME-induced increase in mean arterial pressure in anaesthetised Lewis rats; type: in vivo, rat; details: L-NAME 30 μmol/kg i.v.; [Ru(CO)3Cl2]2 60 μmol/kg i.v. 1 h before; hemin 75 μmol/kg i.p. 24 h before; SnPPIX 40 μmol/kg i.p.
# Description: Lewis rats (280-350 g) were anaesthetised by intramuscular injection of 1 ml/kg Hypnorm (fentanyl 0.315 mg/ml and fluanisone 10 mg/ml) followed 5 min later by an intraperitoneal injection of 5 mg/kg diazepam. Specially designed femoral artery and venous catheters were then surgically implanted as previously described (40). The arterial cannula was connected to a Grass pressure transducer and blood pressure monitored continuously using a polygraph recorder. Experiments were conducted on anaesthetized animals and recordings were made within 30 min of the surgical procedure.
# Control rats (vehicle-treated) and animals that were pre-treated with hemin (75 μmol/kg, i.p) 24 h prior to blood pressure monitoring were then administered with an intravenous injection of 30 μmol/Kg L-NAME to elicit an increase in mean arterial pressure. The extent of blood pressure increase by L-NAME was also monitored over time in hemin-treated animals that received SnPPIX (40 μmol/kg, i.p.) and in control rats previously injected with [Ru(CO)3Cl2]2 (60 μmol/kg, i.v.). In these two groups, SnPPIX or [Ru(CO)3Cl2]2 were administered to animals 1 h prior to L-NAME injection.
Compound,MbCO formation / CO release when added directly to deoxy-Mb solution [1],MbCO formation upon illumination [2],effect on L-NAME-mediated vasoconstriction / rise in CPP (isolated rat hearts; listed as (Mn2(CO)10)),effect on L-NAME-mediated vasoconstriction / rise in CPP (isolated rat hearts; listed as [Mn2(CO10]),cytotoxicity on smooth muscle cells [3],"time to complete saturation of the myoglobin solution ([2]; 13 μmol/ml, continuous exposure to light)",HO-1 protein and mRNA expression in hearts (HO-1),effect on L-NAME-mediated vasoconstriction / rise in CPP (isolated rat hearts),effect on L-NAME-induced increase in blood pressure [4]
"[C-]#[O+].[C-]#[O+].[C-]#[O+].[C-]#[O+].[C-]#[O+].[Fe] [[Fe(CO)5], iron pentacarbonyl]",did not result in any appreciable formation of carbonmonoxy myoglobin,gradual increase in MbCO formation observed over time,–,–,–,–,–,–,–
"[C-]#[O+].[C-]#[O+].[C-]#[O+].[C-]#[O+].[C-]#[O+].[C-]#[O+].[C-]#[O+].[C-]#[O+].[C-]#[O+].[C-]#[O+].[Mn].[Mn] [[Mn2(CO)10], dimanganese decacarbonyl]",did not result in any appreciable formation of carbonmonoxy myoglobin,gradual increase in MbCO formation observed over time,unaffected,significantly delayed vasoconstriction and maintained CPP at much lower levels at the end of perfusion,no major cytotoxicity,approximately 40 min,–,–,–
"C=CC1=C(C)c2cc3[n-]c(cc4[n-]c(cc5nc(cc1n2)C(C)=C5C=C)c(C)c4CCC(=O)O)c(CCC(=O)O)c3C.[Cl-].[Fe+3] [hemin, ferriprotoporphyrin IX chloride]",–,–,–,–,–,–,highly expressed,markedly attenuated,significant suppression
